Data reported in patent US20220396825A1, “METHOD FOR PREPARING […]” (KAO CORPORATION, priority 2019, published 2022).
Several values for one entry are separate records, joined by “and”; a condition that tells them apart may be missing. Equal entries are not always repeated.

What was measured:
Assay type in all cases: cell-based, Salmonella typhimurium
[1] = test system: genome of TA100 strain; test: Mutation frequency in 3-MC-exposed library by sequencing utilizing information on complementary strands
[2] = test system: genome of TA100 strain; test: as above; remark: listed apart in the source
Source text: The flows of a sequencing method and mutation analysis used in Comparative Examples and Examples described later will be described in the following. Fundamentally, the highly accurate sequencing method utilizing information on complementary strands, which is described in Patent Literature 4, was used. Specifically, a library was subjected to sequencing, and read pairs expected to be derived from the same DNA fragment were collected. Then, a consensus read sequence (a consensus read sequence considering complementary strands) was generated among read sequences expected to be derived from two complementary strands (hereinafter, referred to as strand A and strand B) of the DNA fragment. Acquired consensus read sequences considering complementary strands were used for mutation analysis.
(§1) DMSO-exposed cells were prepared with the same procedure as in 1) of Comparative Example 1, and TA100 strain was exposed to 3-methylcholanthrene (3-MC) with the same procedure. In DMSO, 3-MC (produced by Sigma-Aldrich Co. LLC., CASRN.56-49-5) was dissolved. Into test tubes, 100 μL of the 3-MC solution, 500 μL of S9 mix (produced by IEDA TRADING Corporation), and 100 μL of the pre-culture solution for TA100 strain were added (amount of 3-MC: 1000 μg/tube), and the resultants were subjected to shaking culture at 100 rpm in a water bath at 37° C. for 20 minutes (3-MC-exposed cells). Cells were collected from the bacterial suspensions, and DNA was extracted with the same procedure as in 1) of Comparative Example 1.
From DNA derived from the DMSO-exposed cells or the 3-MC-exposed cells, a plurality of samples each of which was to give 60 ng or 100 ng of DNA were prepared, and the samples were each fragmented into pieces having a length of approximately 350 bp on average by using a DNA Shearing System ME220. The fragments of each sample were divided into two groups. For the group without nuclease treatment (nontreatment group), the DNA fragments were suspended in Resuspension buffer attached to the TruSeq for End Repair in the subsequent step in accordance with the recommended protocol to afford 60 μL of eluate. For the group with nuclease treatment (treatment group), the DNA fragments were purified through steps of adsorbing on Sample Purification Beads attached to the TruSeq (hereinafter, also expressed as beads, simply), washing twice with 80% ethanol water, and drying in accordance with the recommended protocol. In the subsequent elution operation, the beads were suspended in distilled water (DW, produced by NIPPON GENE CO., LTD.) to afford 30 μL of DNA eluate containing DNA fragments.
To the DNA eluate obtained in I), 4 μL of 10× Reaction Buffer attached to the S1 nuclease was added. The S1 nuclease was appropriately diluted with 1× Reaction Buffer, 1, 3, 10, 30, 100, or 300 U thereof was added to the DNA eluate, and DW was added thereto to a total volume of 40 μL. For the sample to which 1000 U of the S1 nuclease was to be added, 4.6 μL of 10× Reaction Buffer was added to 30 μL of the DNA eluate obtained by beads purification, and 12 μL of the stock solution of the S1 nuclease was added thereto to a total volume of 46 μL. Each reaction solution with the S1 nuclease was incubated at 30° C. for 30 minutes. Assuming that the whole amount of DNA (60 ng) present at the beginning of library preparation existed in each reaction solution, the numbers of units of the S1 nuclease per 1 ng of DNA were 0.02, 0.05, 0.17, 0.50, 1.67, 5.00, and 16.7 U/ng. For inactivation of the S1 nuclease in each reaction solution, 3 μL of 0.5 M EDTA (pH 8.0) (produced by NIPPON GENE CO., LTD.) was added, and the resultant was incubated at 70° C. for 10 minutes. […]

[3] = test system: TA100 strain; test: Ames test (pre-incubation method), number of revertant colonies; conditions: S9 mix; for Number of revertants: individual plates 1-3; for Number of revertants, Mean: mean of three plates
Method: Exposure of the TA100 cell line to DMSO was performed in accordance with the Ames pre-incubation method (Mol. Mech. Mutagen., 455:29-60, 2000, Sci. Rep. 8 (1):9583). TA100 strain was seeded in 2 mL of Nutrient Broth No. 2 (produced by Oxoid Limited), and subjected to shaking culture at 37° C. and 180 rpm for 4 hours to afford pre-culture solution with an OD660 value of 1.0 or higher. Into test tubes, 100 μL of DMSO, 500 μL of S9 mix (produced by IEDA TRADING Corporation), and 100 μL of the pre-culture solution were added, and the resultants were subjected to shaking culture at 100 rpm in a water bath at 37° C. for 20 minutes (DMSO-exposed cells). After shaking culture for 20 minutes, the test tubes each containing a culture solution were taken out of the water bath, and 50 μL of each culture solution was added to 2 mL of Nutrient Broth solution (containing 18.5% S9 mix) aliquoted in advance, and the resultant was further cultured in an incubator at 37° C. and 180 rpm for 14 hours. After the culture, the bacterial suspensions were collected and centrifuged at 7,500 rpm for 5 minutes, and the supernatants were removed to collect the cells. From the DMSO-exposed cells, total DNA was collected by using a DNeasy Blood & Tissue Kit (produced by QIAGEN) in accordance with the recommended protocol. The double-stranded DNA concentration of each DNA sample obtained was measured by using a Qubit3.0 Fluorometer (produced by Thermo Fisher Scientific) with a Qubit™ dsDNA BR Assay Kit attached thereto.
as §1, with “([…]),” for “(amount of 3-MC: 1000 μg/tube),”
For the Ames test, a bacterial suspension exposed to 3-MC under the above-described conditions was prepared. Thereto, 2 mL of top agar (containing 1% NaCl, 1% agar, 0.05 mM histidine, and 0.05 mM biotin) warmed to 45° C. was added and the resultant was stirred by using a Vortex, and poured onto a minimal glucose agar medium (Tesmedia® AN; produced by Oriental Yeast Co., Ltd.) to form a layer. The resulting plate was subjected to culturing at 37° C. for 48 hours, and the number of colonies observed was counted.

Cc1ccc2cc3c(ccc4ccccc43)c3c2c1CC3 [3-MC, 3-methylcholanthrene]
GC → TA mutation frequency increase rate (3MC/DMSO control), SN ratio ([1]; library treated with RecJf 0.03 U/ng): 1.48
GC → TA mutation frequency increase rate (3MC/DMSO control), SN ratio ([1]; library treated with RecJf 0.10 U/ng): 2.14
GC → TA mutation frequency increase rate (3MC/DMSO control), SN ratio ([1]; library treated with RecJf 0.30 U/ng): 1.68
SN ratio determined from mean values of GC→TA mutation frequency ([2]; 3-MC vs DMSO control, without MBN treatment, each n=3): 1.61
mean value of mutation frequency for GC→TA ([2]; 3-MC-exposed, without MBN treatment, n=3): 0.176×10^−6
GC → TA mutation frequency increase rate (3MC/DMSO control), SN ratio ([2]; MBN experiment, MBN 0 U/ng (nontreatment)): 2.04
GC → TA mutation frequency increase rate (3MC/DMSO control), SN ratio ([2]; RecJf experiment, RecJf 0 U/ng (nontreatment)): 2.04
GC → TA mutation frequency increase rate (3MC/DMSO control), SN ratio ([2]; library S1 nuclease 0 U/ng (nontreatment)): 1.27
GC → TA mutation frequency increase rate (3MC/DMSO control), SN ratio ([2]; library treated with MBN 0.03 U/ng): 1.60
GC → TA mutation frequency increase rate (3MC/DMSO control), SN ratio ([2]; library treated with MBN 0.10 U/ng): 1.81
GC → TA mutation frequency increase rate (3MC/DMSO control), SN ratio ([2]; library treated with MBN 0.30 U/ng): 1.34
GC → TA mutation frequency increase rate (3MC/DMSO control), SN ratio ([2]; library treated with MBN 1.00 U/ng): 1.92
GC → TA mutation frequency increase rate (3MC/DMSO control), SN ratio ([2]; library treated with RecJf 1.00 U/ng): 1.94
GC → TA mutation frequency increase rate (3MC/DMSO control), SN ratio ([2]; library treated with S1 nuclease 0.02 U/ng): 2.1
GC → TA mutation frequency increase rate (3MC/DMSO control), SN ratio ([2]; library treated with S1 nuclease 0.05 U/ng): 1.97
GC → TA mutation frequency increase rate (3MC/DMSO control), SN ratio ([2]; library treated with S1 nuclease 0.17 U/ng): 2.72
GC → TA mutation frequency increase rate (3MC/DMSO control), SN ratio ([2]; library treated with S1 nuclease 0.50 U/ng): 3.75
GC → TA mutation frequency increase rate (3MC/DMSO control), SN ratio ([2]; library treated with S1 nuclease 1.67 U/ng): 3.35
GC → TA mutation frequency increase rate (3MC/DMSO control), SN ratio ([2]; library treated with S1 nuclease 5.00 U/ng): 1.63
GC → TA mutation frequency increase rate (3MC/DMSO control), SN ratio ([2]; library treated with S1 nuclease 16.7 U/ng): 3.59
Number of revertants ([3]; 3-MC 10 μg/plate): 887 and 881 and 1279
Number of revertants, Mean ([3]; 3-MC 10 μg/plate): 1016
Number of revertants ([3]; 3-MC 20 μg/plate): 1539 and 1484 and 1509
Number of revertants, Mean ([3]; 3-MC 20 μg/plate): 1511
Number of revertants ([3]; 3-MC 100 μg/plate): 1519 and 1539 and 1797
Number of revertants, Mean ([3]; 3-MC 100 μg/plate): 1618
